The values that follow come from ChEMBL document CHEMBL1201862, “PubChem BioAssay data set” (2004).

Where a name gives a salt, the structure may show the parent alone.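 Five concentrations, 48 hours, 96-well plates. Abbreviation: GI50, concentration required for 50% inhibition of growth.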 Activity calls are given as the source filed them. Rule as the data show it: active = GI50 up to about 1.1 µM and inactive = higher.

Among the test systems are RPMI-8226; NCI-H522; SK-MEL-28; HL-60; OVCAR-3; A549; SF-295; HCT-15; UACC-62; OVCAR-4; SR; MDA-N; U-251; IGROV-1; TK-10; MDA-MB-231; NCI-H226; KM12; HT-29; EKVX.
Common to all, as to experiment: inhibition of tumour cell growth, NCI panel, 48 h

Regarding `Cc1ccc2nc(/C=N/c3ccccc3Cl)cc(C)c2c1`, the GI50 with RPMI-8226 is 8.75 µM (inactive); in the assay with NCI-H522, 20 µM (inactive); with SK-MEL-28, 18.9 µM (inactive); in the assay on HL-60, 2.73 µM (inactive); in the assay with OVCAR-3 it was 17.5 µM (inactive); in the assay on A549 it was > 100 µM (inactive). The GI50 in the assay with SF-295 was 21.9 µM (inactive); in the assay on HCT-15 it was 18.4 µM; in the assay with UACC-62, 14.6 µM (inactive); with OVCAR-4 it was 34 µM (inactive); in the assay on SR, 2.81 µM (inactive); with MDA-N it was 5.57 µM (inactive). For the same compound, the GI50 with U-251 is 20.7 µM (inactive); in the assay on IGROV-1, 18.9 µM (inactive); in the assay with TK-10, 30.3 µM (inactive); in the assay with MDA-MB-231, 13.2 µM (inactive); in the assay on NCI-H226, 20.6 µM (inactive); in the assay with KM12, 17.4 µM (inactive). Further, the GI50 in the assay with HT-29 is 18.4 µM (inactive); in the assay with EKVX, 20.4 µM (inactive).

On to `CC(=O)SC(C[N+](=O)[O-])c1ccccc1` (stereo not given), for which the GI50 with RPMI-8226 was 2.05 µM (inactive); in the assay on NCI-H522, 16.4 µM (inactive); with SK-MEL-28, 5.55 µM (inactive); in the assay with HL-60, 3.87 µM (inactive); in the assay on OVCAR-3, 5.37 µM (inactive); in the assay with A549 it was 3.82 µM (inactive). In addition, the GI50 is 6.15 µM (inactive) in the assay on SF-295; 2.21 µM in the assay with HCT-15; 13.9 µM (inactive) in the assay on UACC-62; 1.76 µM (inactive) in the assay on OVCAR-4; 2.22 µM (inactive) in the assay on SR; 2.32 µM (inactive) in the assay with MDA-N. For the same compound, the GI50 with U-251 is 3.79 µM (inactive); in the assay on IGROV-1 it was 2.32 µM (inactive); with TK-10, 7.26 µM (inactive); in the assay on MDA-MB-231, 10.8 µM (inactive); with NCI-H226 it was 2.59 µM (inactive); in the assay on KM12 it was 4.99 µM (inactive). In addition, the GI50 was 2.06 µM (inactive) with HT-29 and 6.31 µM (inactive) in the assay on EKVX.

As to `COC(=O)C(=O)C(C(=O)C(N)=O)c1nc2ccc(C(=O)c3ccccc3)cc2nc1O` (stereo not given), the GI50 in the assay with RPMI-8226 is 62.5 µM (inactive); in the assay with NCI-H522, 40.7 µM (inactive); in the assay on SK-MEL-28 it was > 100 µM (inactive); with HL-60 it was 84.7 µM (inactive); with OVCAR-3, > 100 µM (inactive); in the assay on A549 it was > 100 µM (inactive). Also, the GI50 was 79.8 µM (inactive) with SF-295; 55.7 µM with HCT-15; > 100 µM (inactive) in the assay with UACC-62; 28.6 µM (inactive) with OVCAR-4; 27.7 µM (inactive) with SR; > 100 µM (inactive) in the assay with MDA-N. The GI50 in the assay on U-251 is > 100 µM (inactive); in the assay on IGROV-1, 83.2 µM (inactive); in the assay on TK-10, > 100 µM (inactive); in the assay with MDA-MB-231 it was > 100 µM (inactive); in the assay on NCI-H226 it was > 100 µM (inactive); in the assay on KM12, 46.9 µM (inactive). For the same compound, the GI50 in the assay on HT-29 and with EKVX was > 100 µM (inactive) in each case.

On to `CCOP(=O)(OCC)OC1c2[nH]cc(C(=O)OCc3ccccc3)c2-c2cc(C(=O)OC)[nH]c2C1OC` (stereo not given), for which the GI50 was 5.62 µM (inactive) with RPMI-8226; 6.53 µM (inactive) in the assay on NCI-H522; 4.94 µM (inactive) with SK-MEL-28; 6.15 µM (inactive) in the assay on HL-60; 11.2 µM (inactive) in the assay with OVCAR-3; 5.85 µM (inactive) with A549. Moreover, the GI50 in the assay with SF-295 was 5 µM (inactive); with HCT-15 it was 3.25 µM; in the assay on UACC-62, 7.05 µM (inactive); with OVCAR-4, 6.15 µM (inactive); in the assay on SR it was 7.6 µM (inactive); in the assay with MDA-N, 17.5 µM (inactive). Also, the GI50 was 11.4 µM (inactive) in the assay with U-251; 7.59 µM (inactive) in the assay on IGROV-1; 4.91 µM (inactive) in the assay with TK-10; 2.91 µM (inactive) in the assay with MDA-MB-231; 16.1 µM (inactive) in the assay with NCI-H226; 7.96 µM (inactive) in the assay with KM12. In addition, the GI50 is 3.24 µM (inactive) with HT-29 and 5.94 µM (inactive) in the assay on EKVX.

Consider `C[C@H](NC1=CC(=O)C(N[C@@H](C)[C@H](O)c2ccccc2)=CC1=O)[C@H](O)c1ccccc1`, for which the GI50 was > 100 µM (inactive) in the assay on RPMI-8226; 61.8 µM (inactive) in the assay with NCI-H522; > 100 µM (inactive) with SK-MEL-28; > 100 µM (inactive) in the assay on HL-60; > 100 µM (inactive) in the assay on OVCAR-3; 95.3 µM (inactive) with A549. For the same compound, the GI50 in the assay on SF-295 is 70.1 µM (inactive); with HCT-15 it was 68.9 µM; in the assay on UACC-62 it was 87.9 µM (inactive); in the assay with OVCAR-4, > 100 µM (inactive); in the assay on SR it was 14.6 µM (inactive); in the assay with MDA-N, > 100 µM (inactive). The GI50 with U-251 was > 100 µM (inactive); in the assay on IGROV-1 it was > 100 µM (inactive); with TK-10, 55.7 µM (inactive); in the assay on MDA-MB-231, 76.2 µM (inactive); with NCI-H226, 62.1 µM (inactive); in the assay on KM12 it was 59.3 µM (inactive). The GI50 with HT-29 was 27.3 µM (inactive); in the assay with EKVX, > 100 µM (inactive).

For `CCOC(=O)c1cc(C2CCN(c3ccccc3)C2=O)c(C(=O)/C=C(/C)O)[nH]1` (stereo not given), the GI50 with RPMI-8226 is 48.9 µM (inactive); with NCI-H522, 67.5 µM (inactive); in the assay with SK-MEL-28, > 100 µM (inactive); in the assay with HL-60 it was 27.2 µM (inactive); in the assay on OVCAR-3, > 100 µM (inactive); with A549, 93.8 µM (inactive). The GI50 in the assay with SF-295 was 70.8 µM (inactive); in the assay on HCT-15, 51.6 µM; in the assay on UACC-62 it was 82 µM (inactive); in the assay with OVCAR-4, 63.8 µM (inactive); with SR, 34.1 µM (inactive); with MDA-N, 58.6 µM (inactive). The GI50 in the assay with U-251 was > 100 µM (inactive); in the assay on IGROV-1, > 100 µM (inactive); with TK-10 it was > 100 µM (inactive); in the assay with MDA-MB-231, 81.5 µM (inactive); in the assay with NCI-H226, > 100 µM (inactive); with KM12, 45.2 µM (inactive). Further, the GI50 is > 100 µM (inactive) in the assay with HT-29 and 24.7 µM (inactive) in the assay with EKVX.

Consider `CCc1nc(N)nc(N)c1-c1ccc(NC)c([N+](=O)[O-])c1`, for which the GI50 in the assay with RPMI-8226 was 3.72 µM (inactive); in the assay on NCI-H522, 1.88 µM (inactive); in the assay on SK-MEL-28 it was 43.7 µM (inactive); in the assay on HL-60 it was 0.308 µM (active); with OVCAR-3, 10.7 µM (inactive); in the assay with A549, 0.192 µM (active). Also, the GI50 in the assay on SF-295 was 0.753 µM (active); in the assay with HCT-15, 0.398 µM; with UACC-62 it was 0.531 µM (active); in the assay with OVCAR-4, 15.5 µM (inactive); in the assay with SR it was 0.327 µM (active); in the assay with MDA-N, 0.173 µM (active). Further, the GI50 is 0.631 µM (active) in the assay with U-251; 0.904 µM (active) in the assay with IGROV-1; 28.2 µM (inactive) with TK-10; 27.2 µM (inactive) with MDA-MB-231; 28.6 µM (inactive) in the assay on NCI-H226; 2.76 µM (inactive) with KM12. Further, the results for the GI50 in the assay with HT-29 and in the assay with EKVX were 0.44 µM (active) and 8.41 µM (inactive), respectively.

In the case of `NC(=O)NC1NC(=O)NC1=O` (stereo not given) [ALLANTOIN], the GI50 in the assay with RPMI-8226, with NCI-H522, in the assay with SK-MEL-28, in the assay on HL-60, with OVCAR-3 and with A549 was > 100 µM (inactive) each time. The GI50 in the assay on SF-295 is > 100 µM (inactive); in the assay with HCT-15 it was over 100 µM; with UACC-62 it was > 100 µM (inactive); in the assay on OVCAR-4, > 100 µM (inactive); with SR it was > 100 µM (inactive); in the assay on MDA-N, > 100 µM (inactive). The GI50 with U-251, with IGROV-1, with TK-10, in the assay with MDA-MB-231, in the assay with NCI-H226 and in the assay with KM12 was > 100 µM (inactive) each time. Moreover, the GI50 in the assay on HT-29 and in the assay with EKVX was > 100 µM (inactive) throughout.

Regarding `CN1CCC(CN2c3ccccc3Sc3ccccc32)C1` (stereo not given) [METHDILAZINE HYDROCHLORIDE], the GI50 was 15.1 µM (inactive) with RPMI-8226; 16.7 µM (inactive) in the assay with NCI-H522; 6.44 µM (inactive) in the assay with SK-MEL-28; 14.7 µM (inactive) in the assay on HL-60; 14.2 µM (inactive) in the assay on OVCAR-3; 16.2 µM (inactive) in the assay on A549. Besides, the GI50 was 16.1 µM (inactive) in the assay on SF-295; 16.2 µM with HCT-15; 12.8 µM (inactive) in the assay on UACC-62; 13.9 µM (inactive) in the assay on OVCAR-4; 2.7 µM (inactive) in the assay on SR; 14.1 µM (inactive) in the assay with MDA-N. The GI50 with U-251 was 13.7 µM (inactive); in the assay on IGROV-1, 17.3 µM (inactive); in the assay with TK-10 it was 17.6 µM (inactive); with MDA-MB-231, 14 µM (inactive); with NCI-H226 it was 19.5 µM (inactive); with KM12 it was 17.9 µM (inactive). Also, the GI50 with HT-29 is 10.9 µM (inactive); in the assay with EKVX, 16.8 µM (inactive).
